# Test results: PubChem BioAssay AID1259407 (Chemical Carcinogenesis Research Information System (CCRIS), 2018)
# Calls of active or inactive are those of the source. The rule behind the calls is not given here.
# Tested on: CCRIS mutagenicity, Ames/micronucleus/aberration tests
# Assay: CCRIS mutagenicity studies
compound,measurement,setting,value
CCCCCCc1ccc(O)cc1O,mutagenic call,"End Point: IN VITRO CHROMOSOMAL ABERRATIONS, Test System: CHO CELLS, Metabolic Activation: NONE",inactive; negative
same,mutagenic call,"End Point: IN VITRO CHROMOSOMAL ABERRATIONS, Test System: CHO CELLS, Metabolic Activation: RAT, LIVER, S-9, AROCLOR 1254",inactive; negative
same,mutagenic call,"Test System: AMES SALMONELLA TYPHIMURIUM, Strain/Indicator: TA98, Metabolic Activation: HAMSTER, LIVER, S-9, AROCLOR 1254, Method: PREINCUBATION",inactive; negative
same,mutagenic call,"Test System: AMES SALMONELLA TYPHIMURIUM, Strain/Indicator: TA98, Metabolic Activation: NONE, Method: PREINCUBATION",inactive; negative
same,mutagenic call,"Test System: AMES SALMONELLA TYPHIMURIUM, Strain/Indicator: TA98, Metabolic Activation: RAT, LIVER, S-9, AROCLOR 1254, Method: PREINCUBATION",inactive; negative
same,mutagenic call,"Test System: AMES SALMONELLA TYPHIMURIUM, Strain/Indicator: TA100, Metabolic Activation: HAMSTER, LIVER, S-9, AROCLOR 1254, Method: PREINCUBATION",inactive; negative
same,mutagenic call,"Test System: AMES SALMONELLA TYPHIMURIUM, Strain/Indicator: TA100, Metabolic Activation: NONE, Method: PREINCUBATION",inactive; negative
same,mutagenic call,"Test System: AMES SALMONELLA TYPHIMURIUM, Strain/Indicator: TA100, Metabolic Activation: RAT, LIVER, S-9, AROCLOR 1254, Method: PREINCUBATION",inactive; negative
same,mutagenic call,"Test System: AMES SALMONELLA TYPHIMURIUM, Strain/Indicator: TA1535, Metabolic Activation: HAMSTER, LIVER, S-9, AROCLOR 1254, Method: PREINCUBATION",inactive; negative
same,mutagenic call,"Test System: AMES SALMONELLA TYPHIMURIUM, Strain/Indicator: TA1535, Metabolic Activation: NONE, Method: PREINCUBATION",inactive; negative
same,mutagenic call,"Test System: AMES SALMONELLA TYPHIMURIUM, Strain/Indicator: TA1535, Metabolic Activation: RAT, LIVER, S-9, AROCLOR 1254, Method: PREINCUBATION",inactive; negative
same,mutagenic call,"Test System: AMES SALMONELLA TYPHIMURIUM, Strain/Indicator: TA1537, Metabolic Activation: HAMSTER, LIVER, S-9, AROCLOR 1254, Method: PREINCUBATION",inactive; negative
same,mutagenic call,"Test System: AMES SALMONELLA TYPHIMURIUM, Strain/Indicator: TA1537, Metabolic Activation: NONE, Method: PREINCUBATION",inactive; negative
same,mutagenic call,"Test System: AMES SALMONELLA TYPHIMURIUM, Strain/Indicator: TA1537, Metabolic Activation: RAT, LIVER, S-9, AROCLOR 1254, Method: PREINCUBATION",inactive; negative
same,mutagenic call,"Test System: MOUSE LYMPHOMA, Strain/Indicator: L5178Y (TK+/TK-), Metabolic Activation: NONE, Method: SUSPENSION/PLATE",inactive; negative
same,mutagenic call,"Test System: MOUSE LYMPHOMA, Strain/Indicator: L5178Y (TK+/TK-), Metabolic Activation: RAT, LIVER, S-9, AROCLOR 1254, Method: SUSPENSION/PLATE",active; positive
CS(=O)(=O)OCCCNCCCOS(C)(=O)=O,mutagenic call,"Test System: AMES SALMONELLA TYPHIMURIUM, Strain/Indicator: TA98, Metabolic Activation: S-9, Method: STANDARD PLATE",inactive; negative
same,mutagenic call,"Test System: AMES SALMONELLA TYPHIMURIUM, Strain/Indicator: TA100, Metabolic Activation: S-9, Method: STANDARD PLATE",inactive; negative
same,mutagenic call,"Test System: AMES SALMONELLA TYPHIMURIUM, Strain/Indicator: TA102, Metabolic Activation: S-9, Method: STANDARD PLATE",inactive; negative
same,mutagenic call,"Test System: AMES SALMONELLA TYPHIMURIUM, Strain/Indicator: TA1537, Metabolic Activation: S-9, Method: STANDARD PLATE",active; positive
same,mutagenic call,"Test System: E. COLI, Strain/Indicator: WP2 (HCR), Metabolic Activation: S-9, Method: STANDARD PLATE",active; positive
Cc1ccc2c(c1[N+](=O)[O-])C(=O)c1ccccc1C2=O,mutagenic call,"Test System: AMES SALMONELLA TYPHIMURIUM, Strain/Indicator: TA98, Metabolic Activation: NONE, Method: STANDARD PLATE",active; positive
same,mutagenic call,"Test System: AMES SALMONELLA TYPHIMURIUM, Strain/Indicator: TA98, Metabolic Activation: RAT, LIVER, S-9, AROCLOR 1254, Method: STANDARD PLATE",active; positive
same,mutagenic call,"Test System: AMES SALMONELLA TYPHIMURIUM, Strain/Indicator: TA100, Metabolic Activation: RAT, LIVER, S-9, AROCLOR 1254, Method: STANDARD PLATE",active; positive
same,mutagenic call,"Test System: AMES SALMONELLA TYPHIMURIUM, Strain/Indicator: TA1535, Metabolic Activation: NONE, Method: STANDARD PLATE",inactive; negative
same,mutagenic call,"Test System: AMES SALMONELLA TYPHIMURIUM, Strain/Indicator: TA1537, Metabolic Activation: RAT, LIVER, S-9, AROCLOR 1254, Method: STANDARD PLATE",active; positive
same,mutagenic call,"Test System: AMES SALMONELLA TYPHIMURIUM, Strain/Indicator: TA1538, Metabolic Activation: NONE, Method: STANDARD PLATE",active; positive
O[Te](O)(O)(O)(O)O,mutagenic call,"End Point: IN VITRO MICRONUCLEUS, Test System: HUMAN PERIPHERAL LYMPHOCYTES, Metabolic Activation: NONE, Method: FISH (CENTROMERIC SIGNAL CONTENT)",active; positive
